Experimental data taken from US11759455B2, “Substituted 1H-imidazo[4,5-b]pyridin-2(3H)-ones and their use as GLUN2B receptor modulators” (JANSSEN PHARMACEUTICA NV, priority 2016, dated 2023).
Like-named read-outs stand apart in the source and are kept apart here.

Molecular target: T1, human GluN1/GluN2B NMDA receptors (Homo sapiens, UniProt Q13224)
T1 construct: expressed in transfected cells
Assay: Cell-based calcium flux (FLIPR) assay on cloned human NR1/NR2B ion channels expressed in mammalian cells (standard and HTS buffer variants);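 further: stable Tet-On inducible cell line, Ca2+ influx triggered by glutamate at about EC40 plus 10 µM glycine, fluorescent dye read-out over 5 min, normalized to control wells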

[1] = standard assay buffer (0.5 mM MgCl2 dye loading; 137 mM NaCl, 4 mM KCl assay buffer), human GluN1/GluN2B cells, read-out: NR2B IC50 (μM) standard assay
[2] = standard assay buffer (0.5 mM MgCl2 in dye loading buffer; 137 mM NaCl, 4 mM KCl in assay buffer), human GluN1/GluN2B, read-out: NR2B IC50 (μM) standard assay
[3] = HTS assay buffer (1.5 mM MgCl2 in dye loading buffer; 150 mM NaCl, 3 mM KCl in assay buffer), human GluN1/GluN2B, read-out: NR2B IC50 (μM) HTS assay

T1 sequence (Q13224 27-1484, other chains not shown): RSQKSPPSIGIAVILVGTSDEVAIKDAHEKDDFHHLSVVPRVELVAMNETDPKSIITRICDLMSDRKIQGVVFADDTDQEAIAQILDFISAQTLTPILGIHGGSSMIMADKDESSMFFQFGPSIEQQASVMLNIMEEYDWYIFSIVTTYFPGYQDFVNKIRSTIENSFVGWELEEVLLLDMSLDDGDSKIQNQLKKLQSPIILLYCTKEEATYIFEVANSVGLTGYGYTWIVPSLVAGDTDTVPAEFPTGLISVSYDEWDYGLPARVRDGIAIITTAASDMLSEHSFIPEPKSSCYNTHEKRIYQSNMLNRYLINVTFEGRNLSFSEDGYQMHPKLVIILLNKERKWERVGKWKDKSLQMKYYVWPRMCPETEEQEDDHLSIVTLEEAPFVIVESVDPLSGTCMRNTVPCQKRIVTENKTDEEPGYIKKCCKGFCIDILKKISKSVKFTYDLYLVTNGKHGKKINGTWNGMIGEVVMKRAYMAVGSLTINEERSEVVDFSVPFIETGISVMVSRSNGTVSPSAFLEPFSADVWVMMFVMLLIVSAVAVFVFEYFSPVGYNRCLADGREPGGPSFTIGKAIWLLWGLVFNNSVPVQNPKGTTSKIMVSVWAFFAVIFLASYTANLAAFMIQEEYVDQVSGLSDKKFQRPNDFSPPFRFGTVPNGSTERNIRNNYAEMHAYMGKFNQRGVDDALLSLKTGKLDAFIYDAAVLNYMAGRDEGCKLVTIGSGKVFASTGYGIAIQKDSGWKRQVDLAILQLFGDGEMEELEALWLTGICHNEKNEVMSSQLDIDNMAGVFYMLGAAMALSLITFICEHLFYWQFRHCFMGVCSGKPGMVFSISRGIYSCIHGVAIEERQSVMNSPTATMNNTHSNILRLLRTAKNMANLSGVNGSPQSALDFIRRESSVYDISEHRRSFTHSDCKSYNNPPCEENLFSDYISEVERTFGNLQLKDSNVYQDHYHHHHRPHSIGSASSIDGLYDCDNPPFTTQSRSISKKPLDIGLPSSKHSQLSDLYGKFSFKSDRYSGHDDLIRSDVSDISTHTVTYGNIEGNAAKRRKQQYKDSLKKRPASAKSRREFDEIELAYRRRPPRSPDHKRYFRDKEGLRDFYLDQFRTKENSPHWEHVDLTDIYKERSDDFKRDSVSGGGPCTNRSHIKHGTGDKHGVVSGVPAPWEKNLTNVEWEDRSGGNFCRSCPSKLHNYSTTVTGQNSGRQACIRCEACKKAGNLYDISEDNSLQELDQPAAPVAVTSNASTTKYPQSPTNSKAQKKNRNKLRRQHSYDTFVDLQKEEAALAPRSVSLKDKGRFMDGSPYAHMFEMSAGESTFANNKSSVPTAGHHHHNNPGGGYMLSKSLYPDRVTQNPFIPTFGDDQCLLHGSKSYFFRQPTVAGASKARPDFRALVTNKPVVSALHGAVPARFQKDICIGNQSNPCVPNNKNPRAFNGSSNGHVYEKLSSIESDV

| IC50 [1] [µM] | IC50 [2] [µM] | also measured | SMILES |
| --- | --- | --- | --- |
| 1.74 | – | – | Cc1cccc(-c2cnc3[nH]c(=O)n(CCN4CC(F)C4)c3c2)c1C [Example 182, 6-(2,3-Dimethylphenyl)-1-[2-(3-fluoroazetidin-1-yl)ethyl]-3H-imidazo[4,5-b]pyridin-2-one] |
| – | > 10 | – | Cc1cccnc1Cn1c(=O)[nH]c2ncc(-c3cccc(F)c3F)cc21 [Example 319, 6-(2,3-Difluorophenyl)-1-[(3-methyl-2-pyridyl)methyl]-3H-imidazo[4,5-b]pyridin-2-one] |
| 0.031 | – | – | Cn1c(=O)n(CC(=O)N2CCC2)c2cc(-c3ccc(F)s3)cnc21 [Example 81, 1-[2-(Azetidin-1-yl)-2-oxo-ethyl]-6-(5-fluoro-2-thienyl)-3-methyl-imidazo[4,5-b]pyridin-2-one] |
| – | 0.467 | – | Cn1cc(Cn2c(=O)n(C)c3ncc(-c4ccc(F)c(F)c4)cc32)nn1 [Example 549, 6-(3,4-Difluorophenyl)-3-methyl-1-[(1-methyltriazol-4-yl)methyl]imidazo[4,5-b]pyridin-2-one] |
| 0.072 | – | – | Cc1cc(-c2cnc3c(c2)n(Cc2cncnc2)c(=O)n3C)ccc1F [Example 48, 6-(4-Fluoro-3-methyl-phenyl)-3-methyl-1-(pyrimidin-5-ylmethyl)imidazo[4,5-b]pyridin-2-one] |
| 0.457 | – | – | Cc1noc(Cn2c(=O)n(C)c3ncc(-c4ccc(F)c(F)c4)cc32)n1 [Example 77, 6-(3,4-Difluorophenyl)-3-methyl-1-[(3-methyl-1,2,4-oxadiazol-5-yl)methyl]imidazo[4,5-b]pyridin-2-one] |
| – | 0.204 | – | COCCNC(=O)Cn1c(=O)[nH]c2ncc(-c3ccc(F)cc3OC)cc21 [Example 446, 2-[6-(4-Fluoro-2-methoxy-phenyl)-2-oxo-3H-imidazo[4,5-b]pyridin-1-yl]-N-(2-methoxyethyl)acetamide] |
| 0.482 | – | – | Cc1c(F)ccc(-c2cnc3c(c2)n(Cc2ccncn2)c(=O)n3C)c1F [Example 72, 6-(2,4-Difluoro-3-methyl-phenyl)-3-methyl-1-(pyrimidin-4-ylmethyl)imidazo[4,5-b]pyridin-2-one] |
| – | 0.034 | – | Cn1c(=O)n(Cc2cccnc2)c2cc(-c3ccc(F)c(C(F)(F)F)c3)cnc21 [Example 360, 6-[4-Fluoro-3-(trifluoromethyl)phenyl]-3-methyl-1-(3-pyridylmethyl)imidazo[4,5-b]pyridin-2-one] |
| – | – | IC50 [3]: 3.16 µM | COc1ccc(-c2cnc3[nH]c(=O)n(Cc4cccc(C#N)c4)c3c2)cc1 [Example 477, 3-[[6-(4-Methoxyphenyl)-2-oxo-3H-imidazo[4,5-b]pyridin-1-yl]methyl]benzonitrile] |
| 0.174 | – | – | Cn1c(=O)n(CC(=O)NC2CC(F)(F)C2)c2cc(-c3cccc(C(F)(F)F)c3)cnc21 [Example 200, N-(3,3-Difluorocyclobutyl)-2-[3-methyl-2-oxo-6-[3-(trifluoromethyl)phenyl]imidazo[4,5-b]pyridin-1-yl]acetamide] |
| 5.1 | – | – | Cc1ncc(-c2cnc3c(c2)n(CC(=O)N2CCC2)c(=O)n3C)s1 [Example 112, 1-[2-(Azetidin-1-yl)-2-oxo-ethyl]-3-methyl-6-(2-methylthiazol-5-yl)imidazo[4,5-b]pyridin-2-one] |
| – | 0.778 | – | Cc1cc(F)ccc1-c1cnc2[nH]c(=O)n(Cc3cccc(C#N)c3)c2c1 [Example 479, 3-[[6-(4-Fluoro-2-methyl-phenyl)-2-oxo-3H-imidazo[4,5-b]pyridin-1-yl]methyl]benzonitrile] |
| – | 0.017 | – | Cc1c(F)ccc(-c2cnc3c(c2)n(CC(=O)N2CC(F)C2)c(=O)n3C)c1F [Example 400, 6-(2,4-Difluoro-3-methyl-phenyl)-1-[2-(3-fluoroazetidin-1-yl)-2-oxo-ethyl]-3-methyl-imidazo[4,5-b]pyridin-2-one] |
| 0.029 | – | – | Cc1cc(Cn2c(=O)[nH]c3ncc(-c4ccc(F)cc4)cc32)no1 [Example 12, 6-(4-Fluorophenyl)-1-[(5-methylisoxazol-3-yl)methyl]-3H-imidazo[4,5-b]pyridin-2-one] |
| – | 0.028 | – | CN(C)C(=O)Cn1c(=O)n(C)c2ncc(-c3cccc(C(F)(F)F)c3F)cc21 [Example 424, 2-[6-[2-Fluoro-3-(trifluoromethyl)phenyl]-3-methyl-2-oxo-imidazo[4,5-b]pyridin-1-yl]-N,N-dimethyl-acetamide] |
| 0.8 | – | – | Cn1c(=O)n(Cc2ccccn2)c2cc(-c3cccc(C(F)(F)F)c3)cnc21 [Example 251, 3-Methyl-1-(2-pyridylmethyl)-6-[3-(trifluoromethyl)phenyl]imidazo[4,5-b]pyridin-2-one] |
| – | 0.015 | – | Cc1c(F)ccc(-c2cnc3[nH]c(=O)n(CC(=O)N4CCC4)c3c2)c1F [Example 579, 1-[2-(Azetidin-1-yl)-2-oxo-ethyl]-6-(2,4-difluoro-3-methyl-phenyl)-3H-imidazo[4,5-b]pyridin-2-one] |
| – | > 10 | – | Cc1cccnc1Cn1c(=O)[nH]c2ncc(-c3cc(F)cc(F)c3)cc21 [Example 318, 6-(3,5-Difluorophenyl)-1-[(3-methyl-2-pyridyl)methyl]-3H-imidazo[4,5-b]pyridin-2-one] |

| IC50 [1] [µM] | IC50 [2] [µM] | also measured | SMILES |
| --- | --- | --- | --- |
| 6.77 | – | – | Cn1c(=O)n(Cc2ccncn2)c2cc(-c3cccc(F)c3)cnc21 [Example 7, 6-(3-Fluorophenyl)-3-methyl-1-(pyrimidin-4-ylmethyl)imidazo[4,5-b]pyridin-2-one] |
| – | 0.056 | – | Cn1c(=O)n(Cc2cccnn2)c2cc(-c3cccc(Cl)c3)cnc21 [Example 376, 6-(3-Chlorophenyl)-3-methyl-1-(pyridazin-3-ylmethyl)imidazo[4,5-b]pyridin-2-one] |
| – | 0.028 | – | Cn1c(=O)n(Cc2cccnn2)c2cc(-c3ccc(Cl)c(OC(F)F)c3)cnc21 [Example 543, 6-[4-Chloro-3-(difluoromethoxy)phenyl]-3-methyl-1-(pyridazin-3-ylmethyl)imidazo[4,5-b]pyridin-2-one] |
| 5.36 | – | – | Cc1ncc(-c2cnc3c(c2)n(CC(=O)N2CC(F)C2)c(=O)n3C)s1 [Example 113, 1-[2-(3-Fluoroazetidin-1-yl)-2-oxo-ethyl]-3-methyl-6-(2-methylthiazol-5-yl)imidazo[4,5-b]pyridin-2-one] |
| – | – | IC50 (HTS assay buffer (1.5 mM MgCl2 dye loading; 150 mM NaCl, 3 mM KCl assay buffer), human GluN1/GluN2B cells, read-out: NR2B IC50 (μM) HTS assay): 1.82 µM | Cc1cc(F)ccc1-c1cnc2[nH]c(=O)n(CC(=O)N(C)C3CC3)c2c1 [Example 40, N-Cyclopropyl-2-[6-(4-fluoro-2-methyl-phenyl)-2-oxo-3H-imidazo[4,5-b]pyridin-1-yl]-N-methyl-acetamide] |
| 0.07 | – | – | O=C(Cn1c(=O)[nH]c2ncc(-c3cccc(C(F)(F)F)c3)cc21)N1CCC1 [Example 25, 1-[2-(Azetidin-1-yl)-2-oxo-ethyl]-6-[3-(trifluoromethyl)phenyl]-3H-imidazo[4,5-b]pyridin-2-one] |
| – | – | IC50 [3]: 0.305 µM | COc1cc(F)ccc1-c1cnc2[nH]c(=O)n(CC3CC3)c2c1 [Example 467, 1-(Cyclopropylmethyl)-6-(4-fluoro-2-methoxy-phenyl)-3H-imidazo[4,5-b]pyridin-2-one] |
| > 10 | – | – | Cn1c(=O)n(CC(=O)O)c2cc(-c3cccc(C(F)(F)F)c3)cnc21 [Example 137, 2-[3-Methyl-2-oxo-6-[3-(trifluoromethyl)phenyl]imidazo[4,5-b]pyridin-1-yl]Acetic Acid] |
| 0.124 | – | – | Cc1cc(Cn2c(=O)[nH]c3ncc(-c4cccc(C(F)(F)F)c4)cc32)no1 [Example 19, 1-[(5-Methylisoxazol-3-yl)methyl]-6-[3-(trifluoromethyl)phenyl]-3H-imidazo[4,5-b]pyridin-2-one] |
| 2.21 | – | – | Cn1c(=O)n(Cc2ccncn2)c2cc(-c3ccc(F)c(F)c3)cnc21 [Example 70, 6-(3,4-Difluorophenyl)-3-methyl-1-(pyrimidin-4-ylmethyl)imidazo[4,5-b]pyridin-2-one] |
| 0.365 | – | – | O=C(Cn1c(=O)[nH]c2ncc(-c3cccc(C(F)(F)F)c3)cc21)c1nccs1 [Example 215, 1-(2-Oxo-2-thiazol-2-yl-ethyl)-6-[3-(trifluoromethyl)phenyl]-3H-imidazo[4,5-b]pyridin-2-one] |
| – | 0.009 | – | Cc1cc(-c2cnc3c(c2)n(CC(=O)N2CC(F)(F)C2)c(=O)n3C)ccc1F [Example 413, 1-(2-(3,3-Difluoroazetidin-1-yl)-2-oxoethyl)-6-(4-fluoro-3-methylphenyl)-3-methyl-1H-imidazo[4,5-b]pyridin-2(3H)-one] |
| 0.2 | – | – | Cn1c(=O)n(Cc2cccnn2)c2cc(-c3cccc(F)c3)cnc21 [Example 57, 6-(3-Fluorophenyl)-3-methyl-1-(pyridazin-3-ylmethyl)imidazo[4,5-b]pyridin-2-one] |
| – | 0.024 | – | Cn1c(=O)n(CC(=O)N2CCC2)c2cc(-c3ccc(F)c(C(F)F)c3)cnc21 [Example 584, 1-[2-(Azetidin-1-yl)-2-oxo-ethyl]-6-[3-(difluoromethyl)-4-fluoro-phenyl]-3-methyl-imidazo[4,5-b]pyridin-2-one] |
| 0.038 | – | – | Cc1cc(Cn2c(=O)[nH]c3ncc(-c4ccccc4C)cc32)no1 [Example 126, 1-[(5-Methylisoxazol-3-yl)methyl]-6-(o-tolyl)-3H-imidazo[4,5-b]pyridin-2-one] |
| 1.44 | – | – | O=c1[nH]c2ncc(-c3ccccc3)cc2n1CCN1CC(F)C1 [Example 188, 1-[2-(3-Fluoroazetidin-1-yl)ethyl]-6-phenyl-3H-imidazo[4,5-b]pyridin-2-one] |
| 0.047 | – | – | CN(C)C(=O)Cn1c(=O)n(C)c2ncc(-c3csc(C(F)(F)F)n3)cc21 [Example 108, N,N-Dimethyl-2-[3-methyl-2-oxo-6-[2-(trifluoromethyl)thiazol-4-yl]imidazo[4,5-b]pyridin-1-yl]acetamide] |
| 5.01 | – | – | Cn1c(=O)n(CC(=O)NC2(C)CC(F)(F)C2)c2cc(-c3cccc(C(F)(F)F)c3)cnc21 [Example 198, N-(3,3-Difluoro-1-methyl-cyclobutyl)-2-[3-methyl-2-oxo-6-[3-(trifluoromethyl)phenyl]imidazo[4,5-b]pyridin-1-yl]acetamide] |
